{"source": "patent US20230027495A1", "about": "“METHODS OF TREATING CANCER WITH A COMBINATION OF AN ANTI-PD-1 ANTIBODY AND AN ANTI-TISSUE FACTOR ANTIBODY-DRUG CONJUGATE” (Genmab A/S, priority 2019, published 2023)", "key": {"[1]": {"test_system": "human peripheral blood mononuclear cells (PBMCs)", "experiment": "Monocyte/macrophage activation in human PBMCs fed drug-killed MDA-MB-231 cells", "assay_type": "cell-based", "text": "FIGS. 7A and 7B is a series of graphs in which Tissue Factor positive MDA-MB-231 cells killed with various agents were fed to human peripheral blood mononuclear cells (PBMCs) and immune activation assessed by increased expression of activations markers on innate CD14+ monocyte/macrophages and induction of chemokine and cytokine production.\nImmunogenic cell death, as mediated by MMAE, is regulated cell death that activates adaptive immune responses against antigens from dead and dying tumor cells, and allows for the generation of robust innate immune cell activation and subsequent cytotoxic T cell responses targeted towards specific tumor cell antigens. […] Furthermore, these monocyte/macrophages conditioned by ICD-killed cells promote activation of T cells, as evidenced by production of signature inflammatory cytokines associated with cytotoxic T cell responses."}, "[2]": {"test_system": "MDA-MB-231 xenograft", "experiment": "MDA-MB-231 xenograft model in humanized NSG mice", "assay_type": "in vivo", "method": "The in vivo anti-tumor efficacy of tisotumab vedotin in combination with an anti-PD-1 monoclonal antibody was evaluated in NOD.Cg-PrkdC^scid Il2rg^tm1Wj1/SzJ (NSG) immunodeficient mice (The Jackson Laboratory, Stock No. 005557), humanized by engraftment with human CD34^+ hematopoietic stem cells (Jackson Laboratories, Sacramento). Mice were subcutaneously inoculated with 5×10^6 MDA-MB-231 cells (breast adenocarcinoma; American Tissue Culture Collection (ATCC), cat. no. HTB-26), in 100 μL phosphate-buffered saline (PBS). Before inoculation, cells were cultured in DMEM with high glucose and HEPES without L-glutamine (Lonza, cat. no. BE12-709F), 10% (v/v) donor bovine serum with iron New Zealand Origin (Thermo Fisher Scientific, DBSI, cat. no. 10371-029), 2 mM L-glutamine (Lonza, cat. no. BE17-605E), 1 mM Na-pyruvate (Lonza, cat. no. BE13-115E), MEM non-essential amino acids (Life Technologies, cat. no. 11140) and 1% (v/v) penicillin/streptomycin (Lonza, cat. no. DE17-603E), in CellSTACK culture chambers (Corning, cat. no. 3313).\nTumor size was determined by caliper measurement at least two times a week and tumor volume was calculated as 0.52×length×width^2. When tumors reached the size of 100 mm^3 mice were randomized in 7 groups (8 mice per treatment group) based on mouse cohort and tumor size (Table 1). Mice were treated with tisotumab vedotin alone (1 mg/kg or 0.5 mg/kg), intravenously, weekly for a maximum of five treatments, or in combination with an anti-PD-1 antibody (i.e., pembrolizumab, KEYTRUDA®, 50 mg concentrate, Merck & Co., Inc., Kenilworth, N.J. USA) or with anti-PD-1 antibody alone. The first dose of the anti-PD-1 antibody (i.e., pembrolizumab) was 10 mg/kg, followed by 5 mg/kg every five days for a maximum of six treatments. Mice in control groups were administered 1 mg/kg of IgG1 isotype control antibody or IgG1 isotype control antibody conjugated to MMAE intravenously, weekly for a maximum of five treatments (Table 1). The IgG1 isotype control antibody is the b12 antibody which is known to bind to HIV-1 gp120. […]"}, "[3]": {"test_system": "HPAFII (pancreatic carcinoma) and MDA-MB-231 (breast carcinoma) cells", "experiment": "Western blot of ER stress pathways in HPAFII and MDA-MB-231 cells", "assay_type": "cell-based", "method": "Induction of cell death and release of ICD danger signals occurs concomitant with initiation of an ER stress response. Two Tissue Factor positive cell lines, HPAFII (pancreatic carcinoma) and MDA-MB-231 (breast cell carcinoma) were exposed to tisotumab vedotin ADC, an Isotype-MMAE ADC (H00-MMAE, IgG1 MMAE), or free MMAE for 18 hours and induction of ER stress monitored by western blot analysis. Phosphorylation of inositol-requiring transmembrane kinase/endonuclease 1 (IRE1) was detected after treatment with tisotumab vedotin ADC or MMAE free drug (FIG. 6). […] The ability for auristatins to prime the immune system to recognize tumor antigens opens the door for a myriad of combinatorial therapeutic options."}, "[4]": {"test_system": "Tissue Factor positive cell lines", "experiment": "Cell death and ATP/HMGB1 release from Tissue Factor positive cell lines", "assay_type": "cell-based", "conditions": "for activity across multiple Tissue Factor positive cell lines: release of ICD related molecules", "text": "Auristatin ADC payloads disrupt the microtubule networks resulting in altered ER localization and function, which ultimately results in ER stress."}, "[5]": {"test_system": "human peripheral blood mononuclear cells (PBMCs)", "experiment": "T cell activation in CSFE labeled human PBMCs fed drug-killed MDA-MB-231 cells, with or without pembrolizumab", "assay_type": "cell-based", "conditions": "PBMCs fed drug-exposed MDA-MB-231 cells, 48 hours", "text": "Induction of the innate immune response following exposure to cancer cells undergoing ICD sets up secondary T cell activation, which can be enhanced by concomitant pembrolizumab treatment."}, "[6]": {"test_system": "murine tumor cells that stably express human TF", "experiment": "Immunization of Balb/c mice with drug-killed human TF positive murine tumor cells, then tumor challenge (syngeneic model)", "assay_type": "in vivo", "conditions": "mice immunized with drug-killed human TF positive tumor cells", "method": "Mouse tumor cells are transfected with plasmid constructs encoding human tissue factor (TF) and sgRNA-guided Cas9 nuclease (sgRNA/Cas9) to generate a murine cell line that expresses the human TF. Fluorescence activated cell sorting (FACS) yields a clonal population of murine tumor cells that stably express human TF, these cells are then treated with 1 μg to 5 μg per ml of tisotumab vedotin or 100 nM of MMAE for 4 days. In order to prepare dying cells for immunization, treated murine tumor cells are overlaid atop Histopaque, and centrifuged at 2000 g for 30 minutes. Dead and dying cells are pelleted underneath the Histopaque layer, and viability assessed by trypan blue exclusion. A sample with approximately <20% live cells as measured by trypan blue exclusion is obtained. Flash-frozen tumor cells are prepared by submerging the cells in liquid nitrogen for 10 seconds, followed by immersion in 37° C. water until completely thawed. The liquid nitrogen freeze-thaw process is repeated 5 times. Dead and dying human TF positive tumor cells are resuspended in phosphate buffered saline (PBS) and 2×10^6 cells are injected into the peritoneum of immune-competent Balb/c mice. Seven days later, mice receive a second immunization with dead and dying cells prepared in the same manner.\nFourteen days after initial immunization with the dead and dying human TF positive tumor cells, mice are subcutaneously implanted with 5×10^6 wild-type tumor cells and monitored for tumor growth. […] As these effects occur in the absence of any administered therapeutic agent, the administration of cells killed by tisotumab vedotin or MMAE is sufficient to generate long-lasting protective immune memory against subsequent tumor cell challenge. Protective immune memory is amplified by treating these mice with tisotumab vedotin in combination with an antibody that binds to murine PD-1."}, "[7]": {"test_system": "relapsed, recurrent, and/or metastatic cervical cancer", "conditions": "cited from earlier work"}, "[8]": {"conditions": "HPAFII and MDA-MB-231 cells, 18 hours"}, "[9]": {"conditions": "subjects who received tisotumab vedotin"}}, "note": "Entries after “also recorded” stand apart in the source; their conditions may differ.", "data": [{"substance": "tisotumab vedotin: antibody-drug conjugate comprising an antibody that binds to tissue factor (TF), a protease-cleavable linker, and the microtubule disrupting agent MMAE", "values": [{"measurement": "monocyte/macrophage activation by CD86 expression", "setting": "[1]; CD14+ monocyte/macrophages, flow cytometry, PBMCs fed killed MDA-MB-231 cells, compared to IgG1-MMAE ADC or tisotumab alone", "value": "drove monocyte/macrophage activations"}, {"measurement": "release of innate chemokines", "setting": "[1]; PBMCs fed killed MDA-MB-231 cells, compared to IgG1-MMAE ADC or tisotumab alone", "value": "induced release of innate chemokines including MIP10"}, {"measurement": "chemotactic and inflammatory mediators from monocyte/macrophages", "setting": "[1]; after uptake of killed Tissue Factor positive cells", "value": "elicit strong chemotactic and inflammatory mediators"}, {"measurement": "tumor burden as assessed by tumor volume", "setting": "[2]; tisotumab vedotin 0.5 mg/kg IV weekly", "value": "efficiently reduced tumor burden"}, {"measurement": "tumor burden as assessed by tumor volume", "setting": "[2]; tisotumab vedotin 1.0 mg/kg IV weekly", "value": "efficiently reduced tumor burden"}, {"measurement": "activation of JNK (phosphorylation)", "setting": "[3]; [8]", "value": "increased phosphorylation"}, {"measurement": "activation of PERK pathway (ATF4 cleavage)", "setting": "[3]; [8]", "value": "upregulation of ATF4 cleavage"}, {"measurement": "phosphorylation of IRE1", "setting": "[3]; [8]", "value": "detected"}, {"measurement": "activation of ER stress pathways (phosphorylation of IRE and JNK, cleavage of ATF4)", "setting": "[3]; HPAFII or MDA-MB-231 cells, 16 hours", "value": "trigger multiple ER stress pathways"}, {"measurement": "ATP secretion/release", "setting": "[4]; Tissue Factor positive cells", "value": "drove robust A) ATP secretion; also recorded: release the ICD related molecules"}, {"measurement": "HMGB1 release", "setting": "[4]; Tissue Factor positive cells", "value": "HMGB1 release; also recorded: release the ICD related molecules"}, {"measurement": "cell death", "setting": "[4]; Tissue Factor positive cells", "value": "undergo cell death"}, {"measurement": "activity across multiple Tissue Factor positive cell lines", "setting": "[4]", "value": "occurs across multiple Tissue Factor positive cell lines"}, {"measurement": "activity across multiple Tissue Factor positive cell lines", "setting": "[4]; listed as Tisotumab vedotin", "value": "active on multiple Tissue Factor positive cell lines"}, {"measurement": "T cell proliferation (CSFE dilution)", "setting": "[5]", "value": "drove T cell proliferation"}, {"measurement": "production of IFNγ", "setting": "[5]", "value": "increased; also recorded: production of T cell specific cytokines"}, {"measurement": "production of IL12p70", "setting": "[5]", "value": "increased; also recorded: production of T cell specific cytokines"}, {"measurement": "survival after challenge with wild-type tumor cells", "setting": "[6]", "value": "increased survival"}, {"measurement": "tumor growth after challenge with wild-type tumor cells", "setting": "[6]", "value": "delayed tumor growth"}, {"measurement": "efficacy", "setting": "[7]; 2.0 mg/kg tisotumab vedotin", "value": "robust efficacy"}, {"measurement": "safety profile", "setting": "[7]; 2.0 mg/kg tisotumab vedotin", "value": "manageable safety profile"}, {"measurement": "grade of epistaxis cases", "setting": "[7]; nearly all of the cases", "value": "grade 1"}, {"measurement": "grade of the majority of reported peripheral neuropathy cases", "setting": "[7]; [9]", "value": "grade 1-2"}, {"measurement": "peripheral neuropathy as cause of permanent discontinuation", "setting": "[7]; [9]", "value": "leading cause of permanently discontinuation"}, {"measurement": "subjects with peripheral neuropathy", "setting": "[7]; [9]", "value": "approximately 35%"}, {"measurement": "AEs of grade 1-2 conjunctivitis", "setting": "[7]; tisotumab vedotin alone", "value": "frequently reported"}, {"measurement": "clinically relevant perturbations in aPTT or PT", "setting": "[7]; tisotumab vedotin", "value": "have not been observed"}, {"measurement": "epistaxis (bleeding AE) frequency", "setting": "[7]; tisotumab vedotin", "value": "most common reported AE"}]}, {"substance": "tisotumab", "values": [{"measurement": "T cell proliferation (CSFE dilution)", "setting": "[5]", "value": "did not elicit these responses"}, {"measurement": "production of IFNγ", "setting": "[5]", "value": "did not elicit these responses"}, {"measurement": "production of IL12p70", "setting": "[5]", "value": "did not elicit these responses"}]}]}
